Patent publication US5840684A, “Glycopeptide antibiotic derivatives” (Eli Lilly and Company, priority 1995, dated 1998)
Values after ≈ are worked out from the molar mass of the structure shown.

What was measured:
[1] = system: vancomycin-susceptible enterococci; assay: broth micro-dilution, mean geometric MIC; type: cell-based, Enterococcus faecium and Enterococcus faecalis; conditions: enterococci, 24-hour incubation
Streptococcus pneumoniae = assay: mouse protection, experimentally-induced infection; type: in vivo; conditions: mice infected with Streptococcus pneumoniae, two doses
[2] = system: Leuconostoc mesenteroides; assay: agar dilution MIC, lactic acid bacteria; type: cell-based; conditions: Leuconostoc mesenteroides (mean of 4), brain-heart infusion agar
Lactobacillus confusus = assay: agar dilution MIC, lactic acid bacteria; type: cell-based; conditions: Lactobacillus confusus, brain-heart infusion agar
Stapylococcus aureus = assay: mouse protection, experimentally-induced infection; type: in vivo; conditions: mice infected with Stapylococcus aureus, two doses
[3] = system: Enterococcus gallinarum 245; assay: broth micro-dilution MIC; type: cell-based; conditions: Enterococcus gallinarum 245
Description: (§1) The formula I compounds have in vitro and in vivo activity against Gram-positive pathogenic bacteria. The MIC's were determined using a standard broth micro-dilution assay.

[4] = system: Staphylococcus haemolyticus 105; assay: broth micro-dilution MIC; type: cell-based
Description: as §1

[5] = system: Staphylococcus epidermidis 270; assay: broth micro-dilution MIC; type: cell-based
Description: as §1

[6] = system: Staphylococcus haemolyticus 415; assay: broth micro-dilution MIC; type: cell-based
Description: as §1

[7] = system: Streptococcus pneumoniae P1; assay: broth micro-dilution MIC; type: cell-based
Description: as §1

Entercoccus faecium 2041 = assay: broth micro-dilution MIC; type: cell-based; conditions: Entercoccus faecium 2041
Description: as §1

[8] = system: Staphylococcus aureus S13E; type: cell-based
Description: (§2) The MIC's were determined using a standard broth micro-dilution assay.

[9] = system: Staphylococcus aureus SA1199B; type: cell-based
Description: as §2

Streptococcus pyogenes = assay: mouse protection, experimentally-induced infection; type: in vivo; conditions: mice infected with Streptococcus pyogenes, two doses
[10] = system: Leuconostoc pseudomesenteroides; assay: agar dilution MIC, lactic acid bacteria; type: cell-based; conditions: brain-heart infusion agar
Pediococcus pentosaceus = assay: agar dilution MIC, lactic acid bacteria; type: cell-based; conditions: Pediococcus pentosaceus (mean of 2), brain-heart infusion agar
[11] = system: vancomycin-resistant enterococci; assay: broth micro-dilution, mean geometric MIC; type: cell-based, Enterococcus faecium and Enterococcus faecalis; conditions: enterococci, 24-hour incubation
Leuconostoc lactis = assay: agar dilution MIC, lactic acid bacteria; type: cell-based; conditions: Leuconostoc lactis (mean of 2), brain-heart infusion agar
[12] = system: Staphylococcus aureus X400; assay: broth micro-dilution MIC; type: cell-based
Description: as §2

[13] = system: Staphylococcus aureus 447; assay: broth micro-dilution MIC; type: cell-based
Description: as §2

[14] = system: Staphylococcus aureus SA1199A; assay: broth micro-dilution MIC; type: cell-based
Description: as §2

[15] = system: Staphylococcus aureus 446; assay: broth micro-dilution MIC; type: cell-based
Description: as §2

[16] = system: Streptococcus pyogenes C203; assay: broth micro-dilution MIC; type: cell-based
Description: as §2

[17] = system: Staphylococcus aureus 491; assay: broth micro-dilution MIC; type: cell-based
Description: as §2

Entercoccus faecium 276 = assay: broth micro-dilution MIC; type: cell-based
Description: as §2

[18] = system: Staphylococcus aureus X778; assay: broth micro-dilution MIC; type: cell-based
Description: as §2

[19] = system: Entercoccus faecium 180-1; assay: broth micro-dilution MIC; type: cell-based
Description: as §2

[20] = system: Staphylococcus aureus SA1199; assay: broth micro-dilution MIC; type: cell-based
Description: as §2

Pediococcus acidilacti = assay: agar dilution MIC, lactic acid bacteria; type: cell-based; conditions: Pediococcus acidilacti (mean of 10), brain-heart infusion agar
Entercoccus faecium 180 = assay: broth micro-dilution MIC; type: cell-based; conditions: Entercoccus faecium 180
Description: as §1

Compound	mean geometric MIC, Vancomycin Sensitive Strains [1]	ED50 (Streptococcus pneumoniae)	MIC [2]	MIC (Lactobacillus confusus)	ED50 (Stapylococcus aureus)	MIC [3]	MIC [4]	MIC [6]	MIC [7]	MIC (Entercoccus faecium 2041)	MIC [8]	MIC [9]	ED50 (Streptococcus pyogenes)	MIC (Pediococcus pentosaceus)	mean geometric MIC, Vancomycin Resistant Strains [11]	MIC (Leuconostoc lactis)	MIC [16]	MIC (Entercoccus faecium 276)	MIC [19]	MIC (Pediococcus acidilacti)	other results
CNC(CC(C)C)C(=O)NC1C(=O)NC(CC(N)=O)C(=O)NC2C(=O)NC3C(=O)NC(C(=O)NC(C(=O)O)c4cc(O)cc(O)c4-c4cc3ccc4O)C(OC3CC(C)(N)C(O)C(C)O3)c3ccc(c(Cl)c3)Oc3cc2cc(c3OC2OC(CO)C(O)C(O)C2OC2CC(C)(NCc3ccc(-c4ccccc4)cc3)C(O)C(C)O2)Oc2ccc(cc2Cl)C1O (stereo not shown) [Compound 2, p-phenylbenzyl·A82846B]	0.00038 µg/mL	0.025 mg/kg/2	16 µg/mL (≈ 9.1 µM)	16 µg/mL (≈ 9.1 µM)	0.27 mg/kg/2	≤ 0.06 µg/mL	2 µg/mL (≈ 1.14 µM)	1 µg/mL (≈ 0.569 µM)	≤ 0.06 µg/mL	0.125 µg/mL (≈ 0.0711 µM)	≤ 0.06 µg/mL	≤ 0.06 µg/mL	0.014 mg/kg/2	11 µg/mL (≈ 6.25 µM)	0.044 µg/mL	4.0 µg/mL (≈ 2.27 µM)	≤ 0.06 µg/mL	0.5 µg/mL (≈ 0.284 µM)	≤ 0.06 µg/mL	5.9 µg/mL (≈ 3.35 µM)	MIC [5]: 8 µg/mL (≈ 4.55 µM); MIC [10]: 32 µg/mL (≈ 18.2 µM); MIC [12]: 1 µg/mL (≈ 0.569 µM); MIC [13]: ≤ 0.06 µg/mL; MIC [14]: ≤ 0.06 µg/mL; MIC [15]: ≤ 0.06 µg/mL; MIC [17]: ≤ 0.06 µg/mL; MIC [18]: ≤ 0.06 µg/mL; MIC [20]: 0.5 µg/mL (≈ 0.284 µM)
CNC(CC(C)C)C(=O)NC1C(=O)NC(CC(N)=O)C(=O)NC2C(=O)NC3C(=O)NC(C(=O)NC(C(=O)O)c4cc(O)cc(O)c4-c4cc3ccc4O)C(OC3CC(C)(N)C(O)C(C)O3)c3ccc(c(Cl)c3)Oc3cc2cc(c3OC2OC(CO)C(O)C(O)C2OC2CC(C)(NCc3ccc(OC(F)(F)F)cc3)C(O)C(C)O2)Oc2ccc(cc2Cl)C1O (stereo not shown) [Compound 6]	0.14 µg/mL	0.021 mg/kg/2	9.5 µg/mL (≈ 5.38 µM)	16 µg/mL (≈ 9.06 µM)	0.15 mg/kg/2	≤ 0.06 µg/mL	0.5 µg/mL (≈ 0.283 µM)	0.5 µg/mL (≈ 0.283 µM)	≤ 0.06 µg/mL	≤ 0.06 µg/mL			0.013 mg/kg/2	8.0 µg/mL (≈ 4.53 µM)	1.2 µg/mL	8.0 µg/mL (≈ 4.53 µM)	≤ 0.06 µg/mL	≤ 0.06 µg/mL	≤ 0.06 µg/mL	4.3 µg/mL (≈ 2.43 µM)	MIC [10]: 16 µg/mL (≈ 9.06 µM); MIC [13]: 0.5 µg/mL (≈ 0.283 µM); MIC [14]: ≤ 0.06 µg/mL; MIC [15]: 0.5 µg/mL (≈ 0.283 µM)
CNC(CC(C)C)C(=O)NC1C(=O)NC(CC(N)=O)C(=O)NC2C(=O)NC3C(=O)NC(C(=O)NC(C(=O)O)c4cc(O)cc(O)c4-c4cc3ccc4O)C(OC3CC(C)(N)C(O)C(C)O3)c3ccc(c(Cl)c3)Oc3cc2cc(c3OC2OC(CO)C(O)C(O)C2OC2CC(C)(NCc3cccc4c3oc3ccccc34)C(O)C(C)O2)Oc2ccc(cc2Cl)C1O (stereo not shown) [Compound 39]	0.09 µg/mL	< 0.031 mg/kg/2	32 µg/mL (≈ 18.1 µM)	32 µg/mL (≈ 18.1 µM)	0.1 mg/kg/2	≤ 0.06 µg/mL	2 µg/mL (≈ 1.13 µM)	4 µg/mL (≈ 2.26 µM)	≤ 0.06 µg/mL	≤ 0.06 µg/mL	≤ 0.06 µg/mL	≤ 0.06 µg/mL	0.045 mg/kg/2	32 µg/mL (≈ 18.1 µM)	1.2 µg/mL	32 µg/mL (≈ 18.1 µM)	≤ 0.06 µg/mL	≤ 0.06 µg/mL	≤ 0.06 µg/mL	26 µg/mL (≈ 14.7 µM)	MIC (Entercoccus faecium 180): 0.5 µg/mL (≈ 0.282 µM); MIC [12]: ≤ 0.06 µg/mL; MIC [18]: ≤ 0.06 µg/mL; MIC [20]: ≤ 0.06 µg/mL
CNC(CC(C)C)C(=O)NC1C(=O)NC(CC(N)=O)C(=O)NC2C(=O)NC3C(=O)NC(C(=O)NC(C(=O)O)c4cc(O)cc(O)c4-c4cc3ccc4O)C(OC3CC(C)(N)C(O)C(C)O3)c3ccc(c(Cl)c3)Oc3cc2cc(c3OC2OC(CO)C(O)C(O)C2OC2CC(C)(NCc3ccc(Sc4ccccc4)cc3)C(O)C(C)O2)Oc2ccc(cc2Cl)C1O (stereo not shown) [Compound 108]	0.04 µg/mL	0.041 mg/kg/2	10 µg/mL (≈ 5.58 µM)	16 µg/mL (≈ 8.93 µM)		≤ 0.06 µg/mL	2 µg/mL (≈ 1.12 µM)	1 µg/mL (≈ 0.558 µM)	≤ 0.06 µg/mL	≤ 0.06 µg/mL	1 µg/mL (≈ 0.558 µM)	2 µg/mL (≈ 1.12 µM)	0.046 mg/kg/2	23 µg/mL (≈ 12.8 µM)	0.84 µg/mL	8.0 µg/mL (≈ 4.47 µM)	≤ 0.06 µg/mL	0.5 µg/mL (≈ 0.279 µM)	≤ 0.06 µg/mL	12 µg/mL (≈ 6.7 µM)	MIC [10]: 32 µg/mL (≈ 17.9 µM); MIC [12]: 2 µg/mL (≈ 1.12 µM); MIC [13]: 0.5 µg/mL (≈ 0.279 µM); MIC [14]: ≤ 0.06 µg/mL; MIC [15]: 2 µg/mL (≈ 1.12 µM); MIC [20]: 2 µg/mL (≈ 1.12 µM)
